Assay results reported in patent US9446039B2, “Aminoheteroaryl compounds as MTH1 inhibitors” (CEMM—FORSCHUNGSZENTRUM FÜR MOLEKULARE MEDIZIN GMBH, priority 2012, dated 2016).

Legend:
Type in all cases: binding
[1] = biological target: SW480 colon carcinoma cells lysate proteins (Homo sapiens, UniProt P27695); details: PreyGene APEX1
[2] = biological target: SW480 colon carcinoma cells lysate proteins (Homo sapiens, UniProt P99999); details: PreyGene CYCS
[3] = biological target: T1, SW480 colon carcinoma cells lysate proteins (Homo sapiens, UniProt Q14444); details: PreyGene CAPRIN1
T1 sequence (Q14444 1-709): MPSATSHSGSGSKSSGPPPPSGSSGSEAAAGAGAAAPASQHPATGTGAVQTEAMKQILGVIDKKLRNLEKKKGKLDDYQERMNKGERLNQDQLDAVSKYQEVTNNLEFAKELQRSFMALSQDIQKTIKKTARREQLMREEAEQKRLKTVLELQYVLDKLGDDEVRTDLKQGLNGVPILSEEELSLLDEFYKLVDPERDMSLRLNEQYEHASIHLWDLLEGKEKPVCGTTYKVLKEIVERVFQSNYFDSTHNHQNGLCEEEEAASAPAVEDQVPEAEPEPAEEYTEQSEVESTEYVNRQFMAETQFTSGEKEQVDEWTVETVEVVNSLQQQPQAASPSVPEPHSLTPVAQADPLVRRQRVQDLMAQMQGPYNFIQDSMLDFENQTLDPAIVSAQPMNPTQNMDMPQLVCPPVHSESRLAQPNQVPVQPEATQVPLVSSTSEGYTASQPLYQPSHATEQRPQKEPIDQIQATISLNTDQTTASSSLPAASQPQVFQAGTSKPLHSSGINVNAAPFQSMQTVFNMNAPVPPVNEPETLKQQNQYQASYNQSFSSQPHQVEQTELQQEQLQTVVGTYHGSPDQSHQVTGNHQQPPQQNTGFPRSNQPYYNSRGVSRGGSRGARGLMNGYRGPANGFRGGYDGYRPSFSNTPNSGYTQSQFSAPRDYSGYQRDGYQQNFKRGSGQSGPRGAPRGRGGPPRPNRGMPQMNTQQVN

SW480 colon carcinoma cells lysate proteins (Homo sapiens, UniProt P27695), sequence (P27695 whole entry): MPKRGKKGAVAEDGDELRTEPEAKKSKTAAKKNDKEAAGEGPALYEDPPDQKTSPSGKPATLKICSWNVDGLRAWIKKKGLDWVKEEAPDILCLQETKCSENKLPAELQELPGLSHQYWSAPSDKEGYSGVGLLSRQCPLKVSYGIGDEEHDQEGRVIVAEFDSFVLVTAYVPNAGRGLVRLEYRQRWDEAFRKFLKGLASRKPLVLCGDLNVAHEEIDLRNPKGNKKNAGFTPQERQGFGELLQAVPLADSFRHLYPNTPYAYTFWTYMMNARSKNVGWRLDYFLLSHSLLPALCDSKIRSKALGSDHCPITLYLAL
SW480 colon carcinoma cells lysate proteins (Homo sapiens, UniProt P99999), sequence (P99999 whole entry): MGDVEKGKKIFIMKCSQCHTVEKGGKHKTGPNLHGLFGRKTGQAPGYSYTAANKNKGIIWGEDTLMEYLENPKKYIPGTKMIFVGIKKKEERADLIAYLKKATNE

C[C@H](Oc1cc(-c2cnn(C3CCNCC3)c2)cnc1N)c1c(Cl)ccc(F)c1Cl [(5)-crizotinib]
AvgP [1]: 0.1792
SC.Exp. 1-1 [1]: 2
SC.Exp. 1-2 [1]: 0
SC.Exp. 2-1 [1]: 0
SC.Exp. 2-2 [1]: 0
Sum (SC.Exp.) [1]: 2
AvgP [2]: 0.391
SC.Exp. 1-1 [2]: 2
SC.Exp. 1-2 [2]: 3
SC.Exp. 2-1 [2]: 0
SC.Exp. 2-2 [2]: 0
Sum (SC.Exp.) [2]: 5
AvgP [3]: 0.2355
SC.Exp. 1-1 [3]: 2
SC.Exp. 1-2 [3]: 2
SC.Exp. 2-1 [3]: 0
SC.Exp. 2-2 [3]: 0
Sum (SC.Exp.) [3]: 4
